{
  "source": "paper PMC8072580",
  "about": "“Predicting Pharmacokinetic Properties of Potential Anticancer Agents via Their Chromatographic Behavior on Different Reversed Phase Materials” (International Journal of Molecular Sciences, 2021)",
  "key": {"[1]": {"design": "method as in PMID 31864156", "settings": "end-capped ODS column, aqueous acetonitrile; cited from earlier work"}, "[2]": {"tested_on": "human cancer cells", "design": "method as in PMID 31864156, PMID 16545495, PMID 25528370", "settings": "cited from earlier work"}, "[3]": {"test": "Micellar liquid chromatography (MLC), ODS-2 column, Brij 35 effluent: chromatographic lipophilicity", "format": "physicochemical", "settings": "pH 7.4, ODS-2 column, 25 °C", "excerpt": "There are several theories that describe the effect of the concentration of the surfactant in the effluent on the retention of the solute in MLC [23]. The following Foley’s equation is best known in lipophilicity studies:(2) 1/k=1/km+KAM/km[M] where [M] is the total concentration of the surfactant in the mobile phase minus CMC; KAM is the constant that describes solute-micelle binding; and km is the solute retention parameter at the micellar concentration of zero, i.e., when the concentration of the surfactant monomer is equal to CMC. The KAM and km parameters can be evaluated from the slope and intercept of the experimental 1/k vs. [M] relationships.\nEquation (2) describes a linear dependence between decreasing retention and increasing micelle concentration. This equation is valid for aqueous solutions of surfactant or mobile phases with the same concentrations of the organic modifier. The micellar retention parameter, log km, is considered analogous to the log kw parameter evaluated in RPLC. According to the information presented above, this parameter is considered to be a lipophilicity descriptor, and Equation (2) is a simple way to indirectly determine the lipophilic properties of compounds. It is postulated that retention in micellar chromatography depends on hydrophobic (lipophilic), electronic, and steric features of the compounds in a similar way as has been noted concerning pharmacokinetic phenomena. The additional similarity results from the fact that the phospholipids, cholesterol, fatty acids, and triglycerides included in the extracellular and intracellular fluids also form micelles with proteins.\nIn our investigations, the micellar retention factors were used to calculate the log km parameters using Equation (2) (Table 2). For all of the compounds 1-19, the relationships of 1/k vs. [M] were obtained with very good linearity, confirming that Foley’s equation correctly describes the effect of the concentration of the surfactant in the effluent on the retention of the solute. In our studies, the micellar log km parameters for three pharmacologically active sets of compounds 1-6, 7-14, and 15-19 and the log k factors for solutes 15-19 obtained on IAM and end-capped ODS stationary phases were determined experimentally. All these retention factors, together with the log kw values for compounds 1-14 obtained in our earlier investigations on IAM and end-capped ODS stationary phases, were used as lipophilicity descriptors in the QSARs methodology to predict the pharmacokinetic descriptors of the compounds that were tested.\nShimadzu Vp (Shimadzu, Izabelin, Polska) liquid chromatographic system was used in HPLC measurements. It was equipped with an LC 10AT pump, SPD 10A UV–Vis detector, SCL 10A system controller, CTO-10 AS chromatographic oven, and Rheodyne injector valve with a 20 μL loop. As the stationary phases, 3 different revered-phase materials were applied: Spherisorb ODS-2 column, 125 × 4 mm i.d., 5 μm (Merck, Lublin, Poland), Regis IAM.PC.DD2 column, 100 × 4.6 mm i.d., 10 μm (Morton Grove, Illinois, USA), and Purosphere RP-18e column, 125 × 4 mm i.d., 5 μm (Merck, Lublin, Poland).\nIn the MLC technique with an ODS-2 column, buffered Brij 35 mixtures (0.15; 0.125, 0.10, and 0.075 mol/L) with 7% (v/v) addition of isopropanol were used as mobile phases. The buffer was prepared from 0.01 mol/L solutions of Na2HPO4 and citric acid, and the pH 7.4 value was fixed before mixing with an organic modifier. The flow rate was 1 mL/min. Buffered acetonitrile mixtures were used as effluents with the IAM column. Acetonitrile concentration, expressed as a volume fraction, was changed in the range of 0.2–0.5, with the constant step of 0.1. The flow rate was 1.3 mL/min. Acetonitrile concentration was changed in the range of 0.3–0.6 with the RP-18e column, with the constant step of 0.1 and flow rate of 0.1 mL/min. As solutes tested there were used 19 newly designed structurally related compounds. […]"}, "[4]": {"tested_on": "Danio rerio", "design": "method as in PMID 33390035", "settings": "cited from earlier work"}, "[5]": {"design": "method as in PMID 31864156", "settings": "IAM.PC.DD2 column, buffered acetonitrile; cited from earlier work"}},
  "data": [
    {"smiles": "Cc1ccccc1N1CCn2c1nnc(C(F)(F)F)c2=O", "note": "[Compound 8]", "values": [
      {"measurement": "log kw,ODS", "setting": "[1]", "result": "1.81 [19]"},
      {"measurement": "antiproliferative effects in cancer cells compared with normal cells", "setting": "[2]", "result": "clearly higher antiproliferative effects in cancer cells than in normal cells"},
      {"measurement": "k (MLC retention factor)", "setting": "[3]; 0.075 M Brij 35, 7% isopropanol", "result": 6.50},
      {"measurement": "k (MLC retention factor)", "setting": "[3]; 0.1 M Brij 35, 7% isopropanol", "result": 5.97},
      {"measurement": "k (MLC retention factor)", "setting": "[3]; 0.125 M Brij 35, 7% isopropanol", "result": 5.52},
      {"measurement": "k (MLC retention factor)", "setting": "[3]; 0.15 M Brij 35, 7% isopropanol", "result": 5.28},
      {"measurement": "safety for early life stages of Danio rerio compared with pemetrexed", "setting": "[4]", "result": "safer for the early life stages of Danio rerio than pemetrexed"},
      {"measurement": "log kw,IAM", "setting": "[5]", "result": "0.76 [19]"}
    ]}
  ]
}
